Results from ChEMBL document CHEMBL4145535, “Recent updates for designing CCR5 antagonists as anti-retroviral agents” (Eur J Med Chem, 2018).

What was measured:
[1] = molecular target: T1, C-C chemokine receptor type 5 (Homo sapiens, UniProt P51681); test: Antagonist activity at CCR5 (unknown origin) by HTS assay; type: functional
Target sequence in this assay (P51681 whole entry): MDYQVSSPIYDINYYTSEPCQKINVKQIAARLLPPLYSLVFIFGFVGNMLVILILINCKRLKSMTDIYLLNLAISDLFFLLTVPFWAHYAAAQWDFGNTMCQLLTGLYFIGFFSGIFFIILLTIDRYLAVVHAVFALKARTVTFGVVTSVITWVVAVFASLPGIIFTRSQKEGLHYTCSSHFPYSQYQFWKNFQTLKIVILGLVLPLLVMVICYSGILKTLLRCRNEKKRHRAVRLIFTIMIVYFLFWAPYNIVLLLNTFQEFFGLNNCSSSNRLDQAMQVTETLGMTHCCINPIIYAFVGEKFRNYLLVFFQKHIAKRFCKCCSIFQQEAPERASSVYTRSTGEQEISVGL

[2] = molecular target: T1, C-C chemokine receptor type 5; test: Displacement of [125I]-RANTES from CCR5 in mouse NIH/3T3 cells after 1 hr
Target sequence in this assay (P51681 whole entry, looked up): as the sequence (P51681 whole entry) above

| IC50 [2] [nM] | Compound | IC50 [1] [nM] |
| --- | --- | --- |
| – | C1NCC2CNCC12 (configuration not stated) | 7 |
| 2.9 | C=CCN(C(=O)OCc1ccc([N+](=O)[O-])cc1)C1CCN(C[C@H]2CN(C(=O)C3CCCC3)C[C@]2(O)c2ccccc2)CC1 [NIFEVIROC] | – |
